Experiments:
[1] = target: Large ribosomal subunit protein eL31 (Homo sapiens) (UniProt P62899)
[2] = target: Hepatocyte growth factor receptor (Homo sapiens) (UniProt P08581)
[3] = target: LIM domain kinase 2 (Homo sapiens) (UniProt P53671)
[4] = target: Calreticulin (Homo sapiens) (UniProt P27797)
[5] = target: Cerebellar degeneration-related protein 2 (Homo sapiens) (UniProt Q01850)
Dynamin-2 (Homo sapiens) = Dynamin-2 (Homo sapiens) (UniProt P50570)
[6] = target: ATP synthase F(1) complex subunit gamma, mitochondrial (Homo sapiens) (UniProt P36542)
[7] = target: Signal recognition particle subunit SRP72 (Homo sapiens) (UniProt O76094)
[8] = target: Serine/threonine-protein kinase D2 (Homo sapiens) (UniProt Q9BZL6)
[9] = target: Isocitrate dehydrogenase [NAD] subunit alpha, mitochondrial (Homo sapiens) (UniProt P50213)
[10] = target: Serine/threonine-protein kinase PAK 6 (Homo sapiens) (UniProt Q9NQU5)
[11] = target: Breakpoint cluster region protein (Homo sapiens) (UniProt P11274)
[12] = target: Clathrin heavy chain 1 (Homo sapiens) (UniProt Q00610)
[13] = target: Crk-like protein (Homo sapiens) (UniProt P46109)
[14] = target: Phosphatidylserine synthase 1 (Homo sapiens) (UniProt P48651)
[15] = target: Delta(14)-sterol reductase LBR (Homo sapiens) (UniProt Q14739)
[16] = target: Dynein light chain 1, cytoplasmic (Homo sapiens) (UniProt P63167)
[17] = target: Cytochrome c oxidase subunit NDUFA4 (Homo sapiens) (UniProt O00483)
[18] = target: 2,4-dienoyl-CoA reductase [(3E)-enoyl-CoA-producing], mitochondrial (Homo sapiens) (UniProt Q16698)
[19] = target: Serine/threonine-protein kinase/endoribonuclease IRE1 (Homo sapiens) (UniProt O75460)
[20] = target: Serine/threonine-protein kinase LATS1 (Homo sapiens) (UniProt O95835)
[21] = target: ATP-binding cassette sub-family E member 1 (Homo sapiens) (UniProt P61221)
[22] = target: Cyclin-dependent kinase-like 5 (Homo sapiens) (UniProt O76039)
[23] = target: ATP-dependent RNA helicase DDX18 (Homo sapiens) (UniProt Q9NVP1)
[24] = target: Tubulin beta-4B chain (Homo sapiens) (UniProt P68371)
[25] = target: Peroxisomal acyl-coenzyme A oxidase 3 (Homo sapiens) (UniProt O15254)
[26] = target: MAP kinase-activated protein kinase 2 (Homo sapiens) (UniProt P49137)
[27] = target: 26S proteasome regulatory subunit 6B (Homo sapiens) (UniProt P43686)
[28] = target: V-type proton ATPase subunit H (Homo sapiens) (UniProt Q9UI12)
[29] = target: Large ribosomal subunit protein eL21 (Homo sapiens) (UniProt P46778)
[30] = target: Serine/threonine-protein kinase ULK3 (Homo sapiens) (UniProt Q6PHR2)
[31] = target: GTP-binding protein 4 (Homo sapiens) (UniProt Q9BZE4)
[32] = target: Serine/threonine-protein kinase ATR (Homo sapiens) (UniProt Q13535)
[33] = target: Protein kinase C delta type (Homo sapiens) (UniProt Q05655)
[34] = target: Thioredoxin (Homo sapiens) (UniProt P10599)
Nestin (Homo sapiens) = Nestin (Homo sapiens) (UniProt P48681)
[35] = target: Synaptogyrin-2 (Homo sapiens) (UniProt O43760)
[36] = target: 5'-AMP-activated protein kinase subunit gamma-2 (Homo sapiens) (UniProt Q9UGJ0)
[37] = target: mRNA turnover protein 4 homolog (Homo sapiens) (UniProt Q9UKD2)
[38] = target: Large ribosomal subunit protein uL6 (Homo sapiens) (UniProt P32969)
[39] = target: DAZ-associated protein 1 (Homo sapiens) (UniProt Q96EP5)
[40] = target: cAMP-dependent protein kinase catalytic subunit beta (Homo sapiens) (UniProt P22694)
[41] = target: High mobility group protein B1 (Homo sapiens) (UniProt P09429)
[42] = target: Mediator of RNA polymerase II transcription subunit 23 (Homo sapiens) (UniProt Q9ULK4)
[43] = target: Tripeptidyl-peptidase 2 (Homo sapiens) (UniProt P29144)
[44] = target: Calcium/calmodulin-dependent protein kinase type II subunit gamma (Homo sapiens) (UniProt Q13555)
Further: assay method not described here.

Chain of 26S proteasome regulatory subunit 6B (Homo sapiens) (P43686 whole entry): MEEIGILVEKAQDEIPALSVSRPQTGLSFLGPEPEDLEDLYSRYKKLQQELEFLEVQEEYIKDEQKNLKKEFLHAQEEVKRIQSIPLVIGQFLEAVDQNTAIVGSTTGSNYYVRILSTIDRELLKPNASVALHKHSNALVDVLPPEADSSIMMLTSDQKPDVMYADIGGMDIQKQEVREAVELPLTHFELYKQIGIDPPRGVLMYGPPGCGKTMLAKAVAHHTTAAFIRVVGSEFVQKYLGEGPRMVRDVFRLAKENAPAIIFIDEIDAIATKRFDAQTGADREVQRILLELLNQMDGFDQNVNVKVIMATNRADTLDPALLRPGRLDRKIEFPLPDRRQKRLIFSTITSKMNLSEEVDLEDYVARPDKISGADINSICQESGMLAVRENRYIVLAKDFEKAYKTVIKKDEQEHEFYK
Chain of Serine/threonine-protein kinase ATR (Homo sapiens) (Q13535 whole entry, looked up): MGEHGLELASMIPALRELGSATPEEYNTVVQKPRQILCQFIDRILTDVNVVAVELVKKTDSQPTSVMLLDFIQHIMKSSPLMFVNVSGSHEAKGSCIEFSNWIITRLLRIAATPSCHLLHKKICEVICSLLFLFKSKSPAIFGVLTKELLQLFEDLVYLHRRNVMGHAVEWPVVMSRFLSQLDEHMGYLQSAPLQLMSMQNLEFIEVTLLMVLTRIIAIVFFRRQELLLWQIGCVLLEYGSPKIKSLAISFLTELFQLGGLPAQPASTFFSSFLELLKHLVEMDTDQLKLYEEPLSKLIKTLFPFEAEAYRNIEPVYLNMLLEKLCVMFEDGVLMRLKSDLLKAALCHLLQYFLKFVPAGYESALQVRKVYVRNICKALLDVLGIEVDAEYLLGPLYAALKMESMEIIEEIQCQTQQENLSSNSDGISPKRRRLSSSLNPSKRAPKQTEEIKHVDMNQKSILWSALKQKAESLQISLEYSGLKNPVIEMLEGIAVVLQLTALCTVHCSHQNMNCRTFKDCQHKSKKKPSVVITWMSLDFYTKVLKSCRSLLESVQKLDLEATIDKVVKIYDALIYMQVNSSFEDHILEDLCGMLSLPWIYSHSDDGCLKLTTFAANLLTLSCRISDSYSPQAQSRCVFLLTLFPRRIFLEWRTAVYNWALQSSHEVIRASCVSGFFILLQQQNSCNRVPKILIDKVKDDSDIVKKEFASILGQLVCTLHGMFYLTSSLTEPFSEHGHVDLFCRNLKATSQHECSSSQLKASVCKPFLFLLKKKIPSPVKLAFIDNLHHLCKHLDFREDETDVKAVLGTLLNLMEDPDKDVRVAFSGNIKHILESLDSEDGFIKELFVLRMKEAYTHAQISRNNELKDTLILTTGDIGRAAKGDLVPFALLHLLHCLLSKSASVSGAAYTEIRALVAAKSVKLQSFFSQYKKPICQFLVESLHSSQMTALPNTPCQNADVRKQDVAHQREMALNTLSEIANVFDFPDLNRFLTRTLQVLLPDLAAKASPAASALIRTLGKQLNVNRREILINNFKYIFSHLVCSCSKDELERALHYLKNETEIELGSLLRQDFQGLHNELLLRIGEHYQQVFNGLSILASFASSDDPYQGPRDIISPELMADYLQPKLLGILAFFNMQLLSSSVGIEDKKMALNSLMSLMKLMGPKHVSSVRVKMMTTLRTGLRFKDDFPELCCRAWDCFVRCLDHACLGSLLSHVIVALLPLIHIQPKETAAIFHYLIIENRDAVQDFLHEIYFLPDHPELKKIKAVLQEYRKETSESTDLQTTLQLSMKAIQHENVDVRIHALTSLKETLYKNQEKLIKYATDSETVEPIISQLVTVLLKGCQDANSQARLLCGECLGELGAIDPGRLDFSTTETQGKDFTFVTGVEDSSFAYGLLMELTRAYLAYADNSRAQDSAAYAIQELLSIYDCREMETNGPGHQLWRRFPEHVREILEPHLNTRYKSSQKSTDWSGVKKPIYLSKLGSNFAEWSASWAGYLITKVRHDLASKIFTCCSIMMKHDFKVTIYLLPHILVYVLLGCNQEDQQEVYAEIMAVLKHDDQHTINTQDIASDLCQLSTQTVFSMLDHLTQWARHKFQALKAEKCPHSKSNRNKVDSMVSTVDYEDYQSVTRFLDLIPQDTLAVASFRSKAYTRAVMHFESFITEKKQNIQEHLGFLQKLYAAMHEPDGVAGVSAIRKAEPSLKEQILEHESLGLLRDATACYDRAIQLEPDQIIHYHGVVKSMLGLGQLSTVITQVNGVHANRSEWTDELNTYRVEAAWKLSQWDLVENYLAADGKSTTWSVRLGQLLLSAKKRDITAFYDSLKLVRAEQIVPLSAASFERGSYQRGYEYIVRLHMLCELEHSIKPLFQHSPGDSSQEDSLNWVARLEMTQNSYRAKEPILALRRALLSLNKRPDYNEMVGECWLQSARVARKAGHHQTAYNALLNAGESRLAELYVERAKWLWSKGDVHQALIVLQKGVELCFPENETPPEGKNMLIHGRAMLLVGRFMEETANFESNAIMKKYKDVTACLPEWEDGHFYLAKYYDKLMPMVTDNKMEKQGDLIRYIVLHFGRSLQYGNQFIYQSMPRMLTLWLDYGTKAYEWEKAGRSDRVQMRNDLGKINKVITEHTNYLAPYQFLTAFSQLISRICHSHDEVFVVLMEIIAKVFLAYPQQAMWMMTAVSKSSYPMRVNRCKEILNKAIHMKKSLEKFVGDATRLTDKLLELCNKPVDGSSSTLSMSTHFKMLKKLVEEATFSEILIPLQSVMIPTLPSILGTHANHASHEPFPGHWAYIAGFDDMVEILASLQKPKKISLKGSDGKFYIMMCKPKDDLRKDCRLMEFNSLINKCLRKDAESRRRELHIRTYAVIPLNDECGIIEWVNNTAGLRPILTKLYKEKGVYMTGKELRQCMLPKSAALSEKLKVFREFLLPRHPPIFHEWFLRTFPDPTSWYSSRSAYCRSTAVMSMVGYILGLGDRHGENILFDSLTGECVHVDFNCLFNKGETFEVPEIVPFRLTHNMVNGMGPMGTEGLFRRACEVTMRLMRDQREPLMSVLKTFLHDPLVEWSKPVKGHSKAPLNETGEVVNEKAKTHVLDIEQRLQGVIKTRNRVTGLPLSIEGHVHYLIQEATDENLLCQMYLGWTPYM
Chain of Tripeptidyl-peptidase 2 (Homo sapiens) (P29144 whole entry): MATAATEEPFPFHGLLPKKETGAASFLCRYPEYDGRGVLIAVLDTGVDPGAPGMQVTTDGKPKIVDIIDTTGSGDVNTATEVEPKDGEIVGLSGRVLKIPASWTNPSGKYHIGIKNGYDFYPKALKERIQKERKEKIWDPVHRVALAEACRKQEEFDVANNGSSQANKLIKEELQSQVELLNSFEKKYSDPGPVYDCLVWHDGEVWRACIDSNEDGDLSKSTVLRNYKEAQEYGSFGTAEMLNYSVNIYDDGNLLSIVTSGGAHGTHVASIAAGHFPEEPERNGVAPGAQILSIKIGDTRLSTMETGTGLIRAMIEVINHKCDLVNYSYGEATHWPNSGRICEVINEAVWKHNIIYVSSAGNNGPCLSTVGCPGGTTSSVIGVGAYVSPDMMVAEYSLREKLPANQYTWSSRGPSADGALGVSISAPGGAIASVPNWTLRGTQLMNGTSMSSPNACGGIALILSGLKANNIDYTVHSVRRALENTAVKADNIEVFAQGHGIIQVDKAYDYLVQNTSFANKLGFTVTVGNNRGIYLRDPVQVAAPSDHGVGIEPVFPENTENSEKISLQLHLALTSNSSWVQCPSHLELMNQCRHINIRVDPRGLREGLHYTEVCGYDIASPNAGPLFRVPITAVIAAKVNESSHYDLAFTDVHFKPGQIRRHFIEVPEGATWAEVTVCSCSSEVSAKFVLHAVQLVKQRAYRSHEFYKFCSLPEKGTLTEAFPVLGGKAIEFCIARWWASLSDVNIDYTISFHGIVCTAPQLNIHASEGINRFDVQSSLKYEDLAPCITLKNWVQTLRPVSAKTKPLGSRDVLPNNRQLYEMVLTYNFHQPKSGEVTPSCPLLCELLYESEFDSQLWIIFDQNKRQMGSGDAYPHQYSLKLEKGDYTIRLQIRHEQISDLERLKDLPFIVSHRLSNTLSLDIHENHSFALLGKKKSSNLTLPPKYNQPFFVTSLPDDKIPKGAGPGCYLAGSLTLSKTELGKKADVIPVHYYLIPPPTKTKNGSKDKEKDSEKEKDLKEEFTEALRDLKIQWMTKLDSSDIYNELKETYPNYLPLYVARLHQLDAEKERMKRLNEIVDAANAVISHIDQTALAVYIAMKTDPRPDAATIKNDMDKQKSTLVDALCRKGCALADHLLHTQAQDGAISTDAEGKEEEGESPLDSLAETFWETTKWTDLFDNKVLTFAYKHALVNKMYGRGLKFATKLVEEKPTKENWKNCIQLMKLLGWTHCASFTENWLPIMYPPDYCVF
Chain of Cerebellar degeneration-related protein 2 (Homo sapiens) (Q01850 whole entry): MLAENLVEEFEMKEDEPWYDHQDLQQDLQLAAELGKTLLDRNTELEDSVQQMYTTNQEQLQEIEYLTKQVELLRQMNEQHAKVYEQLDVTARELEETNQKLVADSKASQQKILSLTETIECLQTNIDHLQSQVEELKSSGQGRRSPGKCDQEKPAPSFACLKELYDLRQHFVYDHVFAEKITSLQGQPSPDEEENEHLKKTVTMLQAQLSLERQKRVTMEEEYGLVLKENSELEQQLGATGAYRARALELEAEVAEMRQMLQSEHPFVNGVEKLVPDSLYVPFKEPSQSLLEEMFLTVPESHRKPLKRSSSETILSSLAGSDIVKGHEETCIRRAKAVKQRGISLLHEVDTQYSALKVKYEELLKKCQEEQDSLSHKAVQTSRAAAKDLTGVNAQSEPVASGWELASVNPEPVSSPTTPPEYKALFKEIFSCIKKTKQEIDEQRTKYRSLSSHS
Chain of 2,4-dienoyl-CoA reductase [(3E)-enoyl-CoA-producing], mitochondrial (Homo sapiens) (Q16698 whole entry): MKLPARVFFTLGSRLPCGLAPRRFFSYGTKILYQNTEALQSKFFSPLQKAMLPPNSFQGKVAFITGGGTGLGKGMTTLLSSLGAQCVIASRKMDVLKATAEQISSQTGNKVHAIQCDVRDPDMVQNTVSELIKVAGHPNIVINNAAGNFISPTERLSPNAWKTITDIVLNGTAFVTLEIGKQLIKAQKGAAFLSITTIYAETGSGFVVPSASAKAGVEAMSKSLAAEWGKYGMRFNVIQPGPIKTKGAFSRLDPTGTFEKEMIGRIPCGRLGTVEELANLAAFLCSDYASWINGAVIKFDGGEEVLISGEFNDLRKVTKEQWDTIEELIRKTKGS

SMILES: Cc1ccc(C(=O)Nc2cccc(C(F)(F)F)c2)cc1Nc1nc(-c2cccnc2)nc2c1cnn2C
- ED50 [1]: 14.9 µM
- ED50 [2]: 1.75 µM
- ED50 [3]: 2570 nM
- ED50 [4]: 24.3 µM
- ED50 [5]: 26.2 µM
- ED50 (Dynamin-2 (Homo sapiens)): 21.9 µM
- ED50 [6]: 3130 nM
- ED50 [7]: 7.63 nM
- ED50 [8]: 490 nM
- ED50 [9]: 836 nM
- ED50 [10]: 146 nM
- ED50 [11]: 488 nM
- ED50 [12]: 18.9 nM
- ED50 [13]: 0.0843 µM
- ED50 [14]: 6.64 µM
- ED50 [15]: 5780 nM
- ED50 [16]: 15.5 nM
- ED50 [17]: 13.5 µM
- ED50 [18]: 3.63 µM
- ED50 [19]: 5.29 nM
- ED50 [20]: 1.86 nM
- ED50 [21]: 13.8 µM
- ED50 [22]: 1.62 nM
- ED50 [23]: 24.4 nM
- ED50 [24]: 2680 nM
- ED50 [25]: 0.00533 µM
- ED50 [26]: 549 nM
- ED50 [27]: 6.14 µM
- ED50 [28]: 1.75 nM
- ED50 [29]: 1.64 µM
- ED50 [30]: 3540 nM
- ED50 [31]: 2950 nM
- ED50 [32]: 4470 nM
- ED50 [33]: 3810 nM
- ED50 [34]: 13.1 µM
- ED50 (Nestin (Homo sapiens)): 244 nM
- ED50 [35]: 44.4 µM
- ED50 [36]: 57.4 µM
- ED50 [37]: 10.8 µM
- ED50 [38]: 1.27 µM
- ED50 [39]: 124 nM
- ED50 [40]: 3650 nM
- ED50 [41]: 3010 nM
- ED50 [42]: 4.89 µM
- ED50 [43]: 53.8 µM
- ED50 [44]: 177 nM

SMILES: Cc1ccc(C(=O)Nc2cccc(C(F)(F)F)c2)cc1Nc1nc(-c2cccnc2)nc2nn(C)cc12
- ED50 [1]: 0.00449 µM
- ED50 [2]: 523 µM
- ED50 [3]: 1380 nM
- ED50 [4]: 24.5 µM
- ED50 [5]: 0.303 µM
- ED50 (Dynamin-2 (Homo sapiens)): 0.471 µM
- ED50 [6]: 2430 nM
- ED50 [7]: 614 nM
- ED50 [8]: 46.8 nM
- ED50 [9]: 34.4 nM
- ED50 [10]: 526 nM
- ED50 [11]: 852 nM
- ED50 [12]: 21.4 nM
- ED50 [13]: 10.2 µM
- ED50 [14]: 0.0845 µM
- ED50 [15]: 81.6 nM
- ED50 [16]: 5160 nM
- ED50 [17]: 70.3 µM
- ED50 [18]: 10.5 µM
- ED50 [19]: 1920 nM
- ED50 [20]: 87.8 nM
- ED50 [21]: 0.000362 µM
- ED50 [22]: 543 nM
- ED50 [23]: 16.4 nM
- ED50 [24]: 1.2 nM
- ED50 [25]: 7.13 µM
- ED50 [26]: 51.7 nM
- ED50 [27]: 0.508 µM
- ED50 [28]: 2380 nM
- ED50 [29]: 9.95 µM
- ED50 [30]: 78.4 nM
- ED50 [31]: 593 nM
- ED50 [32]: 10.6 nM
- ED50 [33]: 0.136 nM
- ED50 [34]: 11.4 µM
- ED50 (Nestin (Homo sapiens)): 1300 nM
- ED50 [35]: 1.91 µM
- ED50 [36]: 0.0408 µM
- ED50 [37]: 0.311 µM
- ED50 [38]: 5.23 µM
- ED50 [39]: 26.4 nM
- ED50 [40]: 6.79 nM
- ED50 [41]: 50.3 nM
- ED50 [42]: 4.73 µM
- ED50 [43]: 0.487 µM
- ED50 [44]: 51.7 nM

From ChEMBL document CHEMBL5649169 (ChemMedChem, 2018)
